# Test results from patent publication US20230192700A1, “PYRAZOLOPYRAZINES ACTING ON CANCERS VIA INHIBITION OF CDK12” (Bayer Aktiengesellschaft, priority 2020, published 2023).
# What was measured:
# CDK12/CyclinK = target: T1, CDK12/CyclinK (Homo sapiens, UniProt Q9NYV4); test: CDK12/CycK high ATP kinase assay (TR-FRET); type: biochemical; details: 2 mM ATP (high ATP); median; read-out: CDK12/CyclinK, 2 mM ATP (high ATP), IC50 - [mol/l] (median)
# T1 construct: His-CDK12 (aa Q696-S1082); made in house; host or cells: Hi-5 insect cells (baculovirus co-infection with CycK and yeast CAK1)
# Source text: 2.2 CDK12/CycK high ATP Kinase Assay
# In the context of the present invention, the term “IC50 CDK12 hATP” refers to the ICso values obtained according to the assay described in this section (2.2) herein below, i.e. the IC50 values for the inhibition of CDK12 at high ATP.
# CDK12/CycK -inhibitory activity of compounds of the present invention at 2 millimol/L adenosine-tri-phosphate (ATP) was quantified employing the TR-FRET (TR-FRET=Time Resolved Fluorescence Energy Transfer) based CDK12/CycK activity inhibition assay as described in the following paragraphs.
# A complex of human recombinant CDK12 and human recombinant CycK (both N-terminally His-tagged, expression and purification as described above) was used as enzyme. As substrate for the kinase reaction biotinylated peptide biotin-Ahx-KFELLPTPPLSPSRRSGL (C-terminus in amid form) was used which can be purchased e.g. form the company Biosyntan (Berlin-Buch, Germany).
# For the assay 50 nanoL of a 100 fold concentrated solution of the test compound in DMSO was pipetted into either a black low volume 384 well microtiter plate or a black 1536 well microtiter plate (both Greiner Bio-One, Frickenhausen, Germany), 2 microL of a solution of CDK12/CycK in aqueous assay buffer [25 millimol/L HEPES pH 7.5, 20 millimol/L MgCl2, 5 millimol/L β-glycerophosphate, 2 millimol/L EGTA, 1.0 millimol/L dithiothreitol, 0.01% (v/v) Nonidet-P40 (Sigma), 0.01% (w/v) bovine serum albumin] were added and the mixture was incubated for 15 min at 22° C. to allow pre-binding of the test compounds to the enzyme before the start of the kinase reaction. Then the kinase reaction was started by the addition of 3 microL of a solution ATP (3.33 millimol/L=>final conc. in the 5 microL assay volume is 2 millimol/L) and substrate (1.67 micromol/L=>final conc. in the 5 microL assay volume is 1 micromol/L) in assay buffer and the resulting mixture was incubated for a reaction time of 60 min at 22° C. The concentration of CDK12/CycK was adjusted depending of the activity of the enzyme lot and was chosen appropriate to have the assay in the linear range, typical concentrations were about 0.75 nanomol/L. The reaction was stopped by the addition of 3 microL of a solution of TR-FRET detection reagents (125 nanomol/L streptavidine-XL665 [Cisbio Bioassays, Codolet, France] and 0.67 nanomol/L anti-Phospho-c-Myc (Ser 62) (E1J4K)-antibody from Cell Signalling [#13748] and 2 nanomol/L LANCE EU-W1024 labeled anti-rabbit IgG antibody [Perkin-Elmer, product no. 0083]) in an aqueous EDTA-solution (133 millimol/L EDTA, 0.27% (w/v) bovine serum albumin in 66.7 millimol/L HEPES pH 7.5).
# The resulting mixture was incubated 1 h at 22° C. to allow the formation of complex between the phosphorylated biotinylated peptide and the detection reagents. Subsequently the amount of phosphorylated substrate was evaluated by measurement of the resonance energy transfer from the Eu-chelate to the streptavidine-XL. Therefore, the fluorescence emissions at 620 nm and 665 nm after excitation at 350 nm was measured in a TR-FRET reader, e.g. a Pherastar FS (BMG Labtechnologies, Offenburg, Germany) or a Viewlux (Perkin-Elmer). The ratio of the emissions at 665 nm and at […] was taken as the measure for the amount of phosphorylated substrate. The data were normalised (enzyme reaction without inhibitor=0% inhibition, all other assay components but no enzyme=100% inhibition).
# [1] = tested on: CAL-120 human breast adenocarcinoma cells; test: Proliferation assay CAL-120 (crystal violet); type: cell-based; details: Homo sapiens, CAL-120, 96 h, CAL-120 cells, 4 days, median, read-out: Prolif-CAL-120— IC50 - [mol/l] (median)
# Protocol: 4. Proliferation assay: MDA-MB-231, CAL-120
# Human tumour cells were originally obtained from the American Type Culture Collection (ATCC), or from the Deutsche Sammlung von Mikroorganismen and Zellkulturen (DSMZ, German Collection of Microorganisms and Cell Cultures). Cultivated tumour cells (CAL-120, human breast adenocarcinoma cells, DSMZ ACC-459; MDA-M B-231, human breast cancer cells, ATCC HTB-26) were plated at a density of 4,000 cells/well in a 96-well multititer plate in 200 microL of their respective growth medium supplemented 10% fetal calf serum. After 24 hours, the cells of one plate (zero-point plate) were stained with crystal violet (see below), while the medium of the other plates was supplemented with the test substances in various concentrations (0 micromol/L, as well as in the range of 0.01-10 micromol/L; the final concentration of the solvent dimethyl sulfoxide was adjusted to 0.1%) using a Tecan HP D300 Digital Dispenser. The cells were incubated for 4 days in the presence of test substances. Cell proliferation was determined by staining the cells with crystal violet: the cells were fixed by adding 20 microL/measuring point of an 11% glutaric aldehyde solution for 15 minutes at room temperature. After three washing cycles of the fixed cells with water, the plates were dried at room temperature. The cells were stained by adding 100 microL/measuring point of a 0.1% crystal violet solution (pH 3.0). After three washing cycles of the stained cells with water, the plates were dried at room temperature. The dye was dissolved by adding 100 microL/measuring point of a 10% acetic acid solution. The extinction was determined by photometry at a wavelength of 595 nm. The change of cell number, in percent, was calculated by normalization of the measured values to the extinction values of the zero-point plate(=0%) and the extinction of the untreated (0 μM) cells(=100%). The IC50 values (inhibitory concentration at 50% of maximal effect) were determined by means of a 4 parameter fit.
# T1 sequence (Q9NYV4 with tags, fused parts or gaps): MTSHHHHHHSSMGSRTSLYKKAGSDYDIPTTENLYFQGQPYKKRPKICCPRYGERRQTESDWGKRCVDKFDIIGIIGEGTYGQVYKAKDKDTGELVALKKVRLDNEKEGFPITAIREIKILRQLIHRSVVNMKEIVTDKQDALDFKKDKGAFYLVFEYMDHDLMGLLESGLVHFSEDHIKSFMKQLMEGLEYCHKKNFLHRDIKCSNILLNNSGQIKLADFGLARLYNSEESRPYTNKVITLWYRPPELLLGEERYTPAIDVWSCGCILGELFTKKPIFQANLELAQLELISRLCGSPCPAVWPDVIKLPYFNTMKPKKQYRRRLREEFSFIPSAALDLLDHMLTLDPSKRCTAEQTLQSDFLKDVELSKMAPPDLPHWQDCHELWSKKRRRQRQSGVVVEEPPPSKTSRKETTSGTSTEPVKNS
# T1 sequence (O75909 with tags, fused parts or gaps partner limits assumed): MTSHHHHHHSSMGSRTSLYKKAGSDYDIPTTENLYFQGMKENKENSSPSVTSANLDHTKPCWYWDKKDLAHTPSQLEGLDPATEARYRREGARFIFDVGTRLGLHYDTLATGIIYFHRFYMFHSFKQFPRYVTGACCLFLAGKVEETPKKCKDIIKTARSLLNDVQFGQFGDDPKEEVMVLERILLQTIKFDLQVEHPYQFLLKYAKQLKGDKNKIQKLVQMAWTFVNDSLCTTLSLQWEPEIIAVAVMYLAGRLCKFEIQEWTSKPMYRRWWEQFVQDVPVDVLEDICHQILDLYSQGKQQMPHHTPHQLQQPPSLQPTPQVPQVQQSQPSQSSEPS
IC50 (CDK12/CyclinK),IC50 [1],SMILES
> 20000 nM,65.7 nM,"c1ccc2[nH]c(CNc3nn(C4CCOC4)c4nc(C5CC5)cnc34)nc2c1 (racemic) [Example 10, (±)-N-[(1H-benzimidazol-2-yl)methyl]-6-cyclopropyl-1-[oxolan-3-yl]-1H-pyrazolo[3,4-b]pyrazin-3-amine]"
,23.5 nM,"CC1CC(n2nc(NCc3nc4ccccc4[nH]3)c3ncc(C4CC4)nc32)CCO1 (racemic) [Example 44, (±)-cis/trans-N-[(1H-benzimidazol-2-yl)methyl]-6-cyclopropyl-1-(2-methyloxan-4-yl)-1H-pyrazolo[3,4-b]pyrazin-3-amine]"
> 20000 nM,301 nM,"CC(CCN(C)C)n1nc(NCc2nc3ccccc3[nH]2)c2ncc(C3CC3)nc21 (racemic) [Example 62, (±)-N-[(1H-benzimidazol-2-yl)methyl]-6-cyclopropyl-1-[4-(dimethylamino)butan-2-yl]-1H-pyrazolo[3,4-b]pyrazin-3-amine]"
,9.86 nM,"c1ccc2[nH]c(CNc3nn(C4C[C@H]5CC[C@@H](C4)O5)c4nc(C5CC5)cnc34)nc2c1 (stereo partly drawn) [Example 45, exo/endo-N-[(1H-benzimidazol-2-yl)methyl]-6-cyclopropyl-1-(8-oxabicyclo[3.2.1]octan-3-yl)-1H-pyrazolo[3,4-b]pyrazin-3-amine]"
> 20000 nM,,"CC1(C)CC(n2nc(NCc3nc4ccccc4[nH]3)c3ncc(C4CC4)nc32)CC(C)(C)O1 [Example 52, N-[(1H-benzimidazol-2-yl)methyl]-6-cyclopropyl-1-(2,2,6,6-tetramethyloxan-4-yl)-1H-pyrazolo[3,4-b]pyrazin-3-amine]"
> 20000 nM,,"c1ccc2[nH]c(CNc3nn(C4COC4)c4nc(C5CC5)cnc34)nc2c1 [Example 55, N-[(1H-benzimidazol-2-yl)methyl]-6-cyclopropyl-1-(oxetan-3-yl)-1H-pyrazolo[3,4-b]pyrazin-3-amine]"
> 18100 nM,,"O[C@H]1CC[C@H](n2nc(NCc3nc4cc(F)ccc4[nH]3)c3ncc(C4CC4)nc32)CC1 [Example 56, trans-4-(6-cyclopropyl-3-{[(5-fluoro-1H-benzimidazol-2-yl)methyl]amino}-1H-pyrazolo[3,4-b]pyrazin-1-yl)cyclohexan-1-ol]"

# More lines, now with the values behind:
SMILES,IC50 (CDK12/CyclinK),IC50 [1]
"CC(C)(O)C1CC(n2nc(NCc3nc4ccccc4[nH]3)c3ncc(C4CC4)nc32)C1 (mixture of isomers) [Example 48, 2-[cis/trans-3-(3-{[(1H-benzimidazol-2-yl)methyl]amino}-6-cyclopropyl-1H-pyrazolo[3,4-b]pyrazin-1-yl)cyclobutyl]propan-2-ol]",13700 nM,42.5 nM
"CN1CCCC(n2nc(NCc3nc4ccccc4[nH]3)c3ncc(C4CC4)nc32)CC1 (racemic) [Example 34, (±)-N-[(1H-benzimidazol-2-yl)methyl]-6-cyclopropyl-1-(1-methylazepan-4-yl)-1H-pyrazolo[3,4-b]pyrazin-3-amine]",> 20000 nM,7.7 nM
"CN1CCC(n2nc(NCc3nc4ccccc4[nH]3)c3ncc(C4CC4)nc32)C1 (racemic) [Example 35, (±)-N-[(1H-benzimidazol-2-yl)methyl]-6-cyclopropyl-1-(1-methylpyrrolidin-3-yl)-1H-pyrazolo[3,4-b]pyrazin-3-amine]",> 20000 nM,11.7 nM
"CC1CC(n2nc(NCc3nc4ccccc4[nH]3)c3ncc(C4CC4)nc32)CCN1C (racemic) [Example 41, (±)-cis/trans-N-[(1H-benzimidazol-2-yl)methyl]-6-cyclopropyl-1-(1,2-dimethylpiperidin-4-yl)-1H-pyrazolo[3,4-b]pyrazin-3-amine]",> 20000 nM,20.4 nM
"CC1COCCC1n1nc(NCc2nc3ccccc3[nH]2)c2ncc(C3CC3)nc21 (racemic) [Example 42, (±)-cis/trans-N-[(1H-benzimidazol-2-yl)methyl]-6-cyclopropyl-1-(3-methyloxan-4-yl)-1H-pyrazolo[3,4-b]pyrazin-3-amine]",> 20000 nM,84.5 nM
"COCCC(C)n1nc(NCc2nc3ccccc3[nH]2)c2ncc(C3CC3)nc21 (racemic) [Example 57, (±)-N-[(1H-benzimidazol-2-yl)methyl]-6-cyclopropyl-1-(4-methoxybutan-2-yl)-1H-pyrazolo[3,4-b]pyrazin-3-amine]",> 20000 nM,105 nM
"Cc1ccc2[nH]c(CNc3nn(C4CCN(C)CC4)c4nc(C5CC5)cnc34)nc2c1 [Example 6, 6-cyclopropyl-N-[(5-methyl-1H-benzimidazol-2-yl)methyl]-1-(1-methylpiperidin-4-yl)-1H-pyrazolo[3,4-b]pyrazin-3-amine]",> 20000 nM,
"O=CO.c1ccc(-n2nc(NCc3nc4ccccc4[nH]3)c3ncc(C4CC4)nc32)cc1 [Example 13, formic acid—N-[(1H-benzimidazol-2-yl)methyl]-6-cyclopropyl-1-phenyl-1H-pyrazolo[3,4-b]pyrazin-3-amine (1/1)]",> 20000 nM,
"Cn1nc(NCc2nc3ccccc3[nH]2)c2ncc(C3CC3)nc21 [Example 15, N-[(1H-benzimidazol-2-yl)methyl]-6-cyclopropyl-1-methyl-1H-pyrazolo[3,4-b]pyrazin-3-amine]",> 20000 nM,
"O[C@H]1C[C@H](n2nc(NCc3nc4ccccc4[nH]3)c3ncc(C4CC4)nc32)C1 [Example 43, trans-3-(3-{[(1H-benzimidazol-2-yl)methyl]amino}-6-cyclopropyl-1H-pyrazolo[3,4-b]pyrazin-1-yl)cyclobutan-1-ol]",,41.9 nM
"O[C@H]1CC[C@@H](n2nc(NCc3nc4ccccc4[nH]3)c3ncc(C4CC4)nc32)CC1 [Example 51, cis-4-(3-{[(1H-benzimidazol-2-yl)methyl]amino}-6-cyclopropyl-1H-pyrazolo[3,4-b]pyrazin-1-yl)cyclohexan-1-ol]",> 20000 nM,
"c1ccc2[nH]c(CNc3nn(C4CC5(COC5)C4)c4nc(C5CC5)cnc34)nc2c1 [Example 54, N-[(1H-benzimidazol-2-yl)methyl]-6-cyclopropyl-1-(2-oxaspiro[3.3]heptan-6-yl)-1H-pyrazolo[3,4-b]pyrazin-3-amine]",11100 nM,
